From ChEMBL document CHEMBL1201862, “PubChem BioAssay data set” (2004)
The source made the active and inactive calls.

How the values were obtained:
[1] = target: T1, Bcl-2-related protein A1 (Mus musculus, UniProt Q07440); assay type: functional;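 further: confirmatory dose–response counterscreen on Bfl-1, used to check hits from a UBC13 polyubiquitin inhibitor campaign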
T1 sequence (Q07440 whole entry): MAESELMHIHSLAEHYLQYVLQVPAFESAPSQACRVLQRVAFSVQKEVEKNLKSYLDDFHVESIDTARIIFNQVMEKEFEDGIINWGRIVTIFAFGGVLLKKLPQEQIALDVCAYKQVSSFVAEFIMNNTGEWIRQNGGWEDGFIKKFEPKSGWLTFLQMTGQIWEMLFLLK

[2] = target: T2, Ubiquitin-conjugating enzyme E2 N (Homo sapiens, UniProt P61088); assay type: functional
T2 sequence (P61088 whole entry): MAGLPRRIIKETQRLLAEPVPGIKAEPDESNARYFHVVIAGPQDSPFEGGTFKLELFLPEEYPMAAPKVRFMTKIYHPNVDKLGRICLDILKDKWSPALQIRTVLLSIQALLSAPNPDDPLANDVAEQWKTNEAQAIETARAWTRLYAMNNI

[3] = target: T2, Ubiquitin-conjugating enzyme E2 N; assay type: functional; remark: listed apart in the source
[4] = P. falciparum 3D7-ScDHODH growth inhibitors, dose response, SYBR Green, dry powder samples (AID 1159570); assay type: functional, cell-based;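 further: parasite growth measured after 72 hours of compound exposure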
[5] = HepG2 cell cytotoxicity, dose response, cytotoxicity control, plate reader, dry powder samples (AID 1159569); assay type: functional, cell-based;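 further: inhibitor potency with signal falling toward the positive control level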
[6] = P. falciparum Dd2 growth inhibitors, dose response, SYBR Green, cherry-picked samples (AID 1159567); assay type: functional, cell-based
[7] = P. falciparum Dd2 growth inhibitors, dose response, SYBR Green, dry powder samples (AID 1159566); assay type: functional, cell-based;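 further: potency for growth inhibition with lower SYBR green DNA signal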
[8] = P. falciparum ATP4 D1247Y mutant growth inhibitors, dose response, NITD609-resistant line, SYBR Green, dry powder (AID 1159571); assay type: functional, cell-based;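 further: parasites synchronized at ring stage by sorbitol before testing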
[9] = target: T3, Protein Tat (Human immunodeficiency virus type 1 group M subtype B (isolate HXB2)(HIV-1), UniProt P04608); assay type: functional;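 further: tat binding to TAR RNA read out by fluorescence polarization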
T3 sequence (P04608 whole entry): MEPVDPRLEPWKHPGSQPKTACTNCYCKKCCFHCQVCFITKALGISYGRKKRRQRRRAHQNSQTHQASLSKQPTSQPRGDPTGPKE

[10] = inhibitors of Bluetongue virus cytopathic effect, confirmation, arbovirus, BSR cells (AID 1250); assay type: functional;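 further: protection from viral cytopathic effect measured as cell viability by ATP luminescence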
[11] = microbe, parasite or virus in culture; assay type: functional; details: Mycobacterium tuberculosis
[12] = test system: H9c2; experiment: cells; assay type: functional, cell-based; details: Rattus norvegicus, H9c2, Myocardium;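 further: confirmatory concentration-response retest of ultra-high-throughput screening hits for modulation of myocardial damage; cell death induced by hydrogen peroxide oxidative stress; compound pretreatment for 60 min then peroxide exposure for 2 h; potency is for protecting the cells against peroxide damage rather than for killing them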
[13] = Luminescence Cell-Based Dose Response to Identify Activators of 5'UTR Stem-Loop Driven Prion Protein mRNA Translation in H4-C Neuroglioblastoma Cells. [Related pubchem assays: 1829 (Project Summary), 1814 (Primary HTS)]; assay type: functional
[14] = test system: H4; experiment: Luminescence Cell-Based Dose Response HTS to Identify Activators of 5'UTR Stem-Loop Driven Prion Protein mRNA Translation in H4 Neuroglioblastoma Cells. [Related pubchem assays: 1829 (Project Summary), 1814 (Primary HTS)]; assay type: functional; details: Homo sapiens
[15] = Luminescence Cell-Based Dose Response to Identify Activators of Luciferase Translation or Activity in H4-C Neuroglioblastoma Cells. [Related pubchem assays: 1829 (Project Summary), 1814 (Primary HTS)]; assay type: functional
[16] = Luminescence Cell-Based Dose Confirmation to Identify Activators of 5'UTR Stem-Loop Driven Alpha-Synuclein mRNA Translation in H4 Neuroglioblastoma Cells. [Related pubchem assays: 1829 (Project Summary), 1814 (Primary HTS)]; assay type: functional
[17] = target: T4, SUMO-activating enzyme (Homo sapiens, UniProt Q9UBT2); experiment: SUMOylation inhibitor hit validation, confirmation, SUMOylation inhibitor project, biochemical, AlphaScreen (AID 2018); assay type: functional
T4 sequence (Q9UBE0 whole entry): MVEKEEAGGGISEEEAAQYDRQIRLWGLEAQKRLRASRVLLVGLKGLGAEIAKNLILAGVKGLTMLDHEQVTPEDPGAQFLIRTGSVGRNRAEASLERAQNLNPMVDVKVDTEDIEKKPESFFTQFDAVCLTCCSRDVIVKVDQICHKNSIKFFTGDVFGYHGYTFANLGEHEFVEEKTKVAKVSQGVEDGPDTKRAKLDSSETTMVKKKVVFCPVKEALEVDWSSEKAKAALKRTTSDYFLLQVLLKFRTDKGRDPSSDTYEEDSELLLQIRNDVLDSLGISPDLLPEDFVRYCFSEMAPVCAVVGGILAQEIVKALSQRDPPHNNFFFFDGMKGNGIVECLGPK
T4 sequence (Q9UBT2 whole entry): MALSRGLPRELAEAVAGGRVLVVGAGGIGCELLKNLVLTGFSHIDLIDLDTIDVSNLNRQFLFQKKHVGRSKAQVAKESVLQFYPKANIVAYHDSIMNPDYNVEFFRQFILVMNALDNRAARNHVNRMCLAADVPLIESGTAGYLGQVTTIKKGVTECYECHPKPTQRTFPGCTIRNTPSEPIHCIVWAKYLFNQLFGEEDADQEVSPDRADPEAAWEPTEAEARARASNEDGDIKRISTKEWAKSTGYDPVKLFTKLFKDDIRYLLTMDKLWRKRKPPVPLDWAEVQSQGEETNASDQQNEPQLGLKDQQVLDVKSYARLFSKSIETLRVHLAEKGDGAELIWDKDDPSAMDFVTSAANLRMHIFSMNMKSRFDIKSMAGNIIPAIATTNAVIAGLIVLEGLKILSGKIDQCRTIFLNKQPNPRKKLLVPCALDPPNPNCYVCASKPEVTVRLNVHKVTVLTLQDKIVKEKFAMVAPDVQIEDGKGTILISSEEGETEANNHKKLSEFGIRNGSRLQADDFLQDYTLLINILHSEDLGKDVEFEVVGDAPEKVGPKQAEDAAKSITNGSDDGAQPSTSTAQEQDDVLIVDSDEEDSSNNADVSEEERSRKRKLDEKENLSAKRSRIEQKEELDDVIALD

[18] = target: T4, SUMO-activating enzyme; experiment: inhibitors of in vitro SUMOylation cascade, primary screen, biochemical, HTRF, uHTS (AID 2006); assay type: protein-complex assay
[19] = target: T5, Replicative DNA helicase DnaB (Mycobacterium tuberculosis, UniProt P9WMR3); experiment: DnaB intein splicing inhibitors, dose response, biochemical, cell-free fluorescence (AID 449749); assay type: functional
T5 sequence (P9WMR3 whole entry): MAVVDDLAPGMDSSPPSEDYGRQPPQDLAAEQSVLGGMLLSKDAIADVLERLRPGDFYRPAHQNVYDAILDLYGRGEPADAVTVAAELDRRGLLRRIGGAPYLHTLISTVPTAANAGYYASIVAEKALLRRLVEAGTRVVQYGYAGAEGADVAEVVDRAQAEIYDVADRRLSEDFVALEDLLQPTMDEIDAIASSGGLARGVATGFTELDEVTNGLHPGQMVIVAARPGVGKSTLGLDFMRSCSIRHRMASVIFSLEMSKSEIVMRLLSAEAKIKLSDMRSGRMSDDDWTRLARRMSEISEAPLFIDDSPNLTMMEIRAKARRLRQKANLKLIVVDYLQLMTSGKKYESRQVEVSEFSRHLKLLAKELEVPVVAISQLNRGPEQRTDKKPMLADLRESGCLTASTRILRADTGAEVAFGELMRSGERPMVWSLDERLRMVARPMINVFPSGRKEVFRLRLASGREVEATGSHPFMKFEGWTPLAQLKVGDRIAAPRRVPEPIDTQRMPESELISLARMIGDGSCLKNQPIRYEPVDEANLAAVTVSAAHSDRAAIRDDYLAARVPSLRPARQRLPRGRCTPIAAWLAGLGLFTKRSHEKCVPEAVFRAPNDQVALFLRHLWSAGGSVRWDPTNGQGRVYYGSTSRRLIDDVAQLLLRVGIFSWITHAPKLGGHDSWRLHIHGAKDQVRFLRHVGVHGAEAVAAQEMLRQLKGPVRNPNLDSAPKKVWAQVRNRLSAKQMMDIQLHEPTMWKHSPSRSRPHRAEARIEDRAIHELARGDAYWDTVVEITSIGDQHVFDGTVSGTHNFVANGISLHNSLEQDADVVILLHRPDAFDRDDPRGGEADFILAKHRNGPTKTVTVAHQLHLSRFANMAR

[20] = target: T6, Protein RecA (Mycobacterium tuberculosis, UniProt P9WHJ3); experiment: Fluorescence Cell-Free Homogeneous Dose Retest to Identify Inhibitors of RecA-Intein Splicing Activity. [Related pubchem assays (depositor defined):AID2097, AID2223, AID489010, AID492950]; assay type: functional
T6 sequence (P9WHJ3 whole entry): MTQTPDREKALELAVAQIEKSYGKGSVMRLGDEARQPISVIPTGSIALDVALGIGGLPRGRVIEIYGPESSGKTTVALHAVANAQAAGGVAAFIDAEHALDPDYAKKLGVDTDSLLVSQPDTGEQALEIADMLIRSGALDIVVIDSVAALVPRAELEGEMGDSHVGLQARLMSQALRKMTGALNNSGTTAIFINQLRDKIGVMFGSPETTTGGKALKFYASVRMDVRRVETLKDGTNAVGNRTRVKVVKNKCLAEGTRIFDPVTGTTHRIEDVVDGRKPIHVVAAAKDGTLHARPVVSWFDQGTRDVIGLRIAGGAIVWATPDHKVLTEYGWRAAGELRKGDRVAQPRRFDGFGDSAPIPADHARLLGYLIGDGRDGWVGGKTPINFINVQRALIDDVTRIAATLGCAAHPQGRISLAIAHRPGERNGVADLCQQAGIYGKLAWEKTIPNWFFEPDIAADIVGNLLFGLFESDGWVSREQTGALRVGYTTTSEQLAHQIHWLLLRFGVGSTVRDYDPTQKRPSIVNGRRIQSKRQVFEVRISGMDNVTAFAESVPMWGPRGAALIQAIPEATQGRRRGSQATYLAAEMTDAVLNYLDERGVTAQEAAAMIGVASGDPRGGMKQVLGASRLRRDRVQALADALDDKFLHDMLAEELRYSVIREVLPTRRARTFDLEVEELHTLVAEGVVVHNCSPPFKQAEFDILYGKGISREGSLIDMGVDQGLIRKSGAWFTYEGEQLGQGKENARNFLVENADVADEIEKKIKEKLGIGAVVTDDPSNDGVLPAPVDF

[21] = THP-1 cell cytotoxicity, dose response, cytotoxicity control for Vif-APOBEC3G degradation inhibitor project, THP-1 cells (AID 1117359); assay type: functional; details: Human immunodeficiency virus 1, THP-1
[22] = Luminescence Cell-Based Dose Response HTS to Identify Activators of Luciferase Translation or Activity in H4 […] Cells. [Related pubchem assays: 1829 (Project Summary), 1814 (Primary HTS)]; assay type: functional
[23] = target: Glyceraldehyde-3-phosphate dehydrogenase (Homo sapiens, UniProt P04406)
Sequence of Glyceraldehyde-3-phosphate dehydrogenase (P04406 whole entry): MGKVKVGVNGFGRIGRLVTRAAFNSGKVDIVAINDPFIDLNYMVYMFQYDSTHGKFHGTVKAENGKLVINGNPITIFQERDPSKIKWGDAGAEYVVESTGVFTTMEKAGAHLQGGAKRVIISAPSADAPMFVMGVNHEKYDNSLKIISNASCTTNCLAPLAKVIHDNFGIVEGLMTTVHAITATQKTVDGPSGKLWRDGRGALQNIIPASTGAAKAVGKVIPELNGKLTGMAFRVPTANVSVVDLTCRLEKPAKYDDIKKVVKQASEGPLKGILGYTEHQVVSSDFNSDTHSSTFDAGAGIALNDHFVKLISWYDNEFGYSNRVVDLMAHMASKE

[24] = target: T1, Bcl-2-related protein A1; experiment: Bfl-1 inhibitors blocking BH3 peptide binding, confirmation, biochemical, TR-FRET, mouse Bfl-1 (AID 621);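 further: TR-FRET binding of GST-Bfl-1 to FITC-labelled Bid peptide via terbium antibody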
[25] = target: T1, Bcl-2-related protein A1; experiment: Bfl-1 binding inhibitors, SAR follow-up, biochemical, fluorescence polarization (AID 1070)
[26] = Vero cell cytotoxicity, dose response, cytotoxicity control for Vif-APOBEC3G degradation inhibitor project, Vero cells (AID 1117358); assay type: functional; details: Human immunodeficiency virus 1, Vero
[27] = Luminescence Cell-Based Dose Confirmation HTS to Identify Activators of 5'UTR Stem-Loop Driven Alpha-Synuclein mRNA Translation in H4 Neuroglioblastoma Cells. [Related pubchem assays: 1829 (Project Summary), 1814 (Primary HTS)]; assay type: functional

Compound: Cc1cccc(C)c1NC(=O)Cn1c(=O)n(CCCC(=O)NC2CCN(Cc3ccccc3)CC2)c(=O)c2ccccc21
- IC50 [1]: > 20 µM (inactive)
- IC50 [2]: 6.42 µM (active)
- IC50 [3]: 4.06 µM (active)

Compound: COc1ccc2c3c([nH]c2c1)[C@H](CO)N(Cc1ccncc1)CC31CN(Cc2ccc(-c3ccccn3)cc2)C1
- AC50 [4]: 3.42 µM (active)
- AC50 [5]: 43.3 µM (active)
- AC50 [6]: 2.36 µM (active)
- AC50 [7]: 2.97 µM (active)
- AC50 [8]: 2.8 µM (active)

Compound: COc1ccc2c3c(n(C)c2c1)[C@H](CO)N(CC1CC1)CC31CN(C(=O)c2ccc3c(c2)OCO3)C1
- AC50 [4]: 1.24 µM (active)
- AC50 [5]: > 100 µM (inactive)
- AC50 [6]: 1.85 µM (active)
- AC50 [7]: 1.26 µM (active)
- AC50 [8]: 1.28 µM (active)

Compound: CCC(NC(=O)Nc1ccc(O)cc1)(C(F)(F)F)C(F)(F)F
- IC50 [9]: 40.2 µM (inconclusive)

Compound: CS(=O)(=O)N(CC(O)Cn1c2ccccc2c2ccccc21)c1ccccc1 (configuration not stated)
- IC50 [10]: 33 µM (active)

Compound: c1ccc(CN2CCN(CCCNc3ccc4nnc(-c5ccccc5)n4n3)CC2)cc1
- CC50 [11]: 35.6 µM (active)
- IC50 [12]: > 79 µM (inactive)
- IC50 [9]: > 100 µM (active)

Compound: CCCCOc1[nH]cnc2c3cc(OC)ccc3nc1-2
- EC50 [13]: 0.274 µM (active)
- EC50 [14]: < 0.1 µM (active)
- EC50 [15]: 0.403 µM (active)
- EC50 [16]: 0.239 µM (active)

Compound: Cc1nn(-c2ccc(Cl)cc2)c(O)c1C(c1cccc(O)c1)c1c(C)[nH]n(-c2ccc(Cl)cc2)c1=O (configuration not stated)
- IC50 [17]: 4.08 µM (active)
- IC50 [18]: 47.8 µM (active)
- AC50 [19]: 1.36 µM (active)
- EC50 [20]: 0.897 µM (active)

Compound: Cc1ccc(-c2cc(-c3ccc4c(c3)OCO4)c(C#N)c(N)n2)o1
- IC50 [9]: 30.5 µM (inconclusive)
- CC50 [21]: 24.7 µM (active)

Compound: Cc1ccc(-c2cc(C(F)(F)F)c(C#N)c(O)n2)cc1
- IC50 [10]: 32.6 µM (active)

Compound: CCOC(=O)c1s/c(=N\C(=O)c2ccc(C)c(C)c2)n(C)c1C
- EC50 [13]: 0.543 µM (active)
- EC50 [22]: < 0.1 µM (active)
- EC50 [15]: 0.601 µM (active)
- EC50 [16]: 0.718 µM (active)

Compound: Cc1ccc(Cl)c(N2C(=O)C(Cl)=C(N3CCN(C)CC3)C2=O)c1Cl
- IC50 [23]: > 100 µM (not active)
- IC50 [24]: 11.1 µM (active)
- IC50 [25]: 23.9 µM (active)

Compound: COc1cccc(N2C(=O)C(Cl)=C(N3CCN(CCOCCO)CC3)C2=O)c1
- IC50 [23]: > 100 µM (not active)
- IC50 [24]: 9.11 µM (active)
- IC50 [25]: 8.85 µM (active)

Compound: O=C(NCc1ccccc1)/C(=C/c1ccc(OC(F)F)cc1)c1ccccc1
- CC50 [26]: 34.5 µM (active)

Compound: Cc1ccc(Nc2[nH]cnc3ncnc2-3)cc1Cl
- EC50 [13]: 0.745 µM (active)
- EC50 [27]: < 0.1 µM (active)
- EC50 [22]: 0.268 µM (inconclusive)
- EC50 [14]: > 120 µM (not active)
- EC50 [15]: > 12 µM (not active)
- EC50 [16]: 0.604 µM (active)

Compound: CCCCn1c(=O)[nH]c(=O)c2c1nc(-c1ccc(-c3ccc(F)cc3)o1)n2C
- IC50 [17]: > 100 µM (inactive)
- IC50 [18]: > 100 µM (inactive)

Compound: O=C(Nc1ccccc1C(=O)O)c1ccc(NC(=O)c2ccc(Br)o2)cc1
- IC50 [10]: 35.4 µM (active)

Compound: O=C1c2cccc3cccc(c23)N1Cc1cccc(F)c1
- IC50 [1]: > 20 µM (inactive)
- IC50 [2]: 16.6 µM (active)
- IC50 [3]: 6.16 µM (active)
